Assay results published in patent publication US20020055528A1, “Artemisinin analogs having antimalarial, antiproliferative, and antitumor activities and chemoselective methods of making the same” (priority 1999, published 2002).
Entries after “also recorded” stand apart in the source; their conditions may differ. Read-outs that look alike come from different tables or passages of the source.

Legend:
786-0 = assay: NCI 60 cell line screen (SRB), Renal Cancer; type: cell-based
RPMI-8226 = assay: NCI 60 cell line screen (SRB), Leukemia; type: cell-based; conditions: Table IV (LC50, PG=−50)
MOLT-4 = test system: MOLT-4
Experimental: (§1) The screening assay is performed on 96-well microtitre plates. Relatively high initial inoculation densities are used, in order to permit measurement of “time-zero” values and to enhance the screen's ability to detect and provide some differentiation between antiproliferative and cytotoxic response parameters. […] The inoculated microtitre plates are pre-incubated for 24 hours at 37θC prior to drug additions. The five drug dilutions tested routinely range from 10^−4 to 10^−8 molar. Higher or lower concentration ranges may be selected on a nonroutine basis if appropriate solubility and/or prior biological information or other screening data so dictate. Duplicate wells are prepared for all concentrations, (concentration is often denoted by placing brackets around a number); “time-zero” and “no drug” controls are also provided for each test. The minimum amount of compound required for a one-time evaluation in the routine screen can be calculated from the knowledge that each test requires a total of approximately 40 ml (0.04 liter) of cell culture medium containing the highest desired drug concentration. Thus, the amount (grams) of sample required (assuming an upper test concentration limit of 10^−4 M) is: molecular weight of compound×[…]. After a 48 hour incubation (37θC) with the test compound, the cells are fixed in situ to the bottoms of the microtitre wells by addition of 50 ul of either 50% trichloroacetic acid (for adherent cell lines) or 80% trichloroacetic acid (for settled cell suspension lines), followed by incubation for 60 minutes at 4θC. The cellular protein in each well is assayed using a sulforhodamine B (SRB) stain procedure. Briefly, after discarding the supernatants, the microtitre plates are washed 5 times with deionized water and air-dried. One hundred microliters of SRB solution (0.4% w/v in 1% acetic acid) is added to each microtitre well and incubated for 10 minutes at room temperature. Unbound SRB is removed by washing 5 times with 1 % acetic acid. The plates are air-dried, the bound stain is solubilized with Tris buffer, and the optical densities read at 515 nm. SRB is a bright pink anionic dye which, in dilute acetic acid, binds electrostatically to the basic amino acids of TCA-fixed cells. Cryopreserved master stocks of all the lines are maintained, and cultures used for screening are replaced from the master stock after no more than twenty passages in the screening laboratory. The cell line panel consists of 60 lines, organized into nine, disease-related subpanels including leukemia, non-small-cell lung cancer, colon, CNS, melanoma, ovarian, renal, prostate and breast cancers.
(§2) The response parameters G150 and LC50 are interpolated values representing the concentrations at which the percentage growth (PG) is +50 and −50, respectively:
(§3) GI50 is the concentration for which the PG=+50. At this value the increase from time tzero, in the number or mass of cells in the test well is only 50% as much as the corresponding increase in the control well during this period of the experiment, see Table II. A drug effect of this intensity is interpreted as primary growth inhibition.
(§4) TGI is the concentration for which PG=0. At this value the number or mass of cells in the well at the end of the experiment equals the number or mass of cells in the well at time tzero, see Table III. A drug effect of this intensity is regarded as cytostasis.
(§5) LC50 is the concentration for which the PG=−50. At this value, the number or mass of cells in the test well at the end of the experiment is half that at time tzero, see Table IV. This is interpreted as cytotoxicity.

CAKI-1 = assay: NCI 60 cell line screen (SRB), Renal Cancer; type: cell-based
OVCAR-8 = assay: NCI 60 cell line screen (SRB), Ovarian Cancer; type: cell-based
KM12 = assay: NCI 60 cell line screen (SRB), Colon Cancer; type: cell-based
60 cell line panel = assay: NCI 60 cell line screen (SRB), whole panel; type: cell-based
Experimental: as §1, §2, §3, §4, §5

NCI-H226 = assay: NCI 60 cell line screen (SRB), Non-Small Cell Lung Cancer; type: cell-based
OVCAR-5 = assay: NCI 60 cell line screen (SRB), Ovarian Cancer; type: cell-based
SK-MEL2 = assay: NCI 60 cell line screen (SRB), Melanoma; type: cell-based
SNB-75 = assay: NCI 60 cell line screen (SRB), CNS Cancer; type: cell-based
HL-60(TB) = assay: NCI 60 cell line screen (SRB), Leukemia; type: cell-based
LOX IMVI = assay: NCI 60 cell line screen (SRB), Melanoma; type: cell-based
UACC-62 = assay: NCI 60 cell line screen (SRB), Melanoma; type: cell-based
NCI-H522 = assay: NCI 60 cell line screen (SRB), Non-Small Cell Lung Cancer; type: cell-based
UACC-257 = assay: NCI 60 cell line screen (SRB), Melanoma; type: cell-based
IGROVI = assay: NCI 60 cell line screen (SRB), Ovarian Cancer; type: cell-based
HT29 = assay: NCI 60 cell line screen (SRB), Colon Cancer; type: cell-based
HCT-116 = assay: NCI 60 cell line screen (SRB), Colon Cancer; type: cell-based

## CC1=C(C=Cc2cccc(C=CC3=C(C)C4CCC(C)C5CCC6(C)OOC45C(O3)O6)c2)OC2OC3(C)CCC4C(C)CCC1C24OO3 (stereo not drawn) [VII-h]
786-0; PG=0
  Log10TGI: >−4.00 log10M
786-0; PG=+50
  Log10GI50: −7.02 log10M
786-0; Table IV (LC50, PG=−50)
  Log10GI50: >−4.00 log10M
RPMI-8226
  Log10GI50: >−4.00 log10M
MOLT-4
  drug concentration for cytotoxicity (percentage growth −50): greater than 10^−4 M
MOLT-4; MOLT-4, FIGS. 6a-6e
  drug concentration for primary growth inhibition (percentage growth +50): greater than 10^−8 molar
MOLT-4; MOLT-4, PG=+50
  Log10GI50: <−8.00 log10M
MOLT-4; MOLT−4, PG=0
  Log10TGI: <−8.00 log10M
MOLT-4; Table IV (LC50, PG=−50), MOLT−4
  Log10GI50: >−4.00 log10M
CAKI-1; PG=0
  Log10TGI: >−4.00 log10M
CAKI-1; PG=+50
  Log10GI50: −6.28 log10M
CAKI-1; Table IV (LC50, PG=−50)
  Log10GI50: >−4.00 log10M
OVCAR-8; PG=0
  Log10TGI: >−4.00 log10M
OVCAR-8; PG=+50
  Log10GI50: −7.33 log10M
OVCAR-8; Table IV (LC50, PG=−50)
  Log10GI50: >−4.00 log10M
KM12; PG=0
  Log10TGI: >−4.00 log10M
KM12; PG=+50
  Log10GI50: −7.81 log10M
KM12; Table IV (LC50, PG=−50)
  Log10GI50: >−4.00 log10M
60 cell line panel; Table IV (LC50), mean over the panel
  MG MID of Log10GI50 (Table IV): −4.01 log10M
60 cell line panel; Table IV (LC50), panel summary
  Delta of Log10GI50 (Table IV): 0.43
  Range of Log10GI50 (Table IV): .44
60 cell line panel; Tables II, III and IV
  potency in words, compared with artemisinin and paclitaxel: in most instances are as potent and in some instances more potent than paclitaxel; also recorded: more potent than artemisinin and equivalent to and in many instances higher in potency than paclitaxel
60 cell line panel; mean over the panel
  MG MID of Log10GI50: −7.03 log10M
  MG MID of Log10TGI: −4.61 log10M
60 cell line panel; panel summary
  Delta of Log10GI50: 0.97
  Delta of Log10TGI: 2.62
  Range of Log10GI50: 4.00
  Range of Log10TGI: 3.23
NCI-H226; PG=0
  Log10TGI: >−4.00 log10M
NCI-H226; PG=+50
  Log10GI50: >−4.00 log10M
NCI-H226; Table IV (LC50, PG=−50)
  Log10GI50: >−4.00 log10M
OVCAR-5; PG=0
  Log10TGI: >−4.00 log10M
OVCAR-5; PG=+50
  Log10GI50: −7.12 log10M
OVCAR-5; Table IV (LC50, PG=−50)
  Log10GI50: >−4.00 log10M
SK-MEL2; PG=0
  Log10TGI: −5.34 log10M
SK-MEL2; PG=+50
  Log10 GI50 or LC50 (per conditions): −6.87 log10M
SK-MEL2; Table IV (LC50, PG=−50)
  Log10 GI50 or LC50 (per conditions): >−4.00 log10M
SNB-75; PG=0
  Log10TGI: −5.08 log10M
SNB-75; PG=+50
  Log10 GI50 (PG=+50) or LC50 (PG=−50): −6.99 log10M
SNB-75; Table IV (LC50, PG=−50)
  Log10 GI50 (PG=+50) or LC50 (PG=−50): >−4.00 log10M
HL-60(TB); PG=0
  Log10TGI: −7.59 log10M
HL-60(TB); PG=+50
  Log10GI50: −7.59 log10M
HL-60(TB); Table IV (LC50, PG=−50)
  Log10GI50: >−4.00 log10M
LOX IMVI; PG=0
  Log10TGI: −5.67 log10M
LOX IMVI; PG=+50
  Log10GI50: −7.40 log10M
LOX IMVI; Table IV (LC50, PG=−50)
  Log10GI50: −4.15 log10M
UACC-62; PG=0
  Log10TGI: >−4.00 log10M
UACC-62; PG=+50
  Log10GI50: −6.91 log10M
UACC-62; Table IV (LC50, PG=−50)
  Log10GI50: >−4.00 log10M
NCI-H522; PG=0
  Log10TGI: >−4.00 log10M
NCI-H522; PG=+50
  Log10GI50: −7.22 log10M
NCI-H522; Table IV (LC50, PG=−50)
  Log10GI50: >−4.00 log10M
UACC-257; PG=0
  Log10TGI: >−4.00 log10M
UACC-257; PG=+50
  Log10 GI50 (PG=+50) or Log10 LC50 (PG=−50): −7.21 log10M
UACC-257; Table IV (LC50, PG=−50)
  Log10 GI50 (PG=+50) or Log10 LC50 (PG=−50): >−4.00 log10M
IGROVI; PG=0
  Log10TGI: −4.20 log10M
IGROVI; Table IV (LC50, PG=−50)
  Log10GI50: >−4.00 log10M
HT29; PG=0
  Log10TGI: >−4.00 log10M
HT29; PG=+50
  Log10GI50: −7.37 log10M
HT29; Table IV (LC50, PG=−50)
  Log10GI50: >−4.00 log10M
HCT-116; PG=0
  Log10TGI: −5.38 log10M
HCT-116; PG=+50
  Log10 GI50 (PG=+50) or Log10 LC50 (PG=−50), as given per row condition: −7.53 log10M
HCT-116; Table IV (LC50, PG=−50)
  Log10 GI50 (PG=+50) or Log10 LC50 (PG=−50), as given per row condition: >−4.00 log10M
